The target of one experiment is T1, CDK2/CycE (Homo sapiens, UniProt P24941).
T1 construct: GST; purchased ProQinase GmbH (Freiburg, Germany); host or cells: insect cells (Sf9)
The experiment in a line: CDK2 HTRF assay (assay 4). The class given is biochemical. Conditions: IC50 assay 4/IC50 assay 2. The source says:
CDK2/CycE-inhibitory activity of compounds of the present invention was quantified employing the CDK2/CycE HTRF assay as described in the following paragraphs.
Recombinant fusion proteins of GST and human CDK2 and of GST and human CycE, expressed in insect cells (Sf9) and purified by Glutathion-Sepharose affinity chromatography, were purchase from ProQinase GmbH (Freiburg, Germany). As substrate for the kinase reaction biotinylated peptide biotin-Ttds-YISPLKSPYKISEG (C-terminus in amid form) was used which can be purchased e.g. form the company JERINI peptide technologies (Berlin, Germany).
CDK2/CycE was incubated for 60 min at 22° C. in the presence of different concentrations of test compounds in 5 μl assay buffer [50 mM Tris/HCl pH 8.0, 10 mM MgCl2, 1.0 mM dithiothreitol, 0.1 mM sodium ortho-vanadate, 10 μM adenosine-tri-phosphate (ATP), 0.75 μM substrate, 0.01% (v/v) Nonidet-P40 (Sigma), 1% (v/v) dimethylsulfoxide]. The concentration of CDK2/CycE was adjusted depending of the activity of the enzyme lot and was chosen appropriate to have the assay in the linear range, typical concentrations were in the range of 1 ng/ml. The reaction was stopped by the addition of 5 μl of a solution of HTRF detection reagents (0.2 μM streptavidine-XLent and 3.4 nM Phospho-(Ser) CDKs Substrate Antibody [product #2324B, Cell Signalling Technology, Danvers, Mass., USA} and 4 nM Prot-A-EuK [Protein A labeled with Europium Cryptate from Cis biointernational, France, product no. 61PRAKLB]) in an aqueous EDTA-solution (100 mM EDTA, 800 mM KF, 0.2% (w/v) bovine serum albumin in 100 mM HEPES/NaOH pH 7.0).

In the next experiment the target is Tie2 (Homo sapiens, UniProt Q02763). The experiment in a line: Tie2 ELISA assay (assay 1): Ang2-stimulated Tie2 autophosphorylation in transfected CHO cells. The class given is cell-based. More on the design: expressed in transfected cells; host or cells: CHO (DHFR selection). The note with it: CHO Tie2/DHFR cells stimulated by angiopoietin-2, pIC50 = -log IC50 in molar concentration, read-out: Tie 2 activity (assay 1). Here is the method:
Cellular activity of compounds of the present invention as inhibitors of Tie2 kinase activity was measured employing a Tie2 ELISA assay as described in the following paragraphs. Herein CHO cell-cultures, which are stably transfected by known techniques with Tie2 using DHFR deficiency as selection marker, are stimulated by angiopoietin-2. The specific autophosphorylation of Tie2 receptors is quantified with a sandwich-ELISA using anti-Tie2 antibodies for catch and anti-phosphotyrosine antibodies coupled to HRP for detection.
• 96 well tissue culture plate, sterile, Greiner • 96 well FluoroNunc plate MaxiSorp Surface C, Nunc • 96 well plate polypropylene for compound dilution in DMSO • CHO Tie2/DHFR (transfected cells) • PBS−; PBS++, DMSO • MEM alpha Medium with Glutamax-I without Ribonucleosides and Deoxyribonucleosides (Gibco #32561-029) with 10% FCS after dialysis! and 1% PenStrep • Lysis buffer: 1 Tablet “Complete” protease inhibitor • 1 cap Vanadate (1 mL>40 mg/mL; working solution 2 mM) • ad 50 mL with Duschl-Puffer • pH 7.6 • Anti-Tie2-antibody 1:425 in Coating Buffer pH 9.6 • Stock solution: 1.275 mg/mL>working: 3 μg/mL • PBST: 2 bottles PBS (10×)+10 ml Tween, fill up with VE-water • RotiBlock 1:10 in VE-water • Anti-Phosphotyrosine HRP-Conjugated 1:10000 in 3% TopBlock • 3% TopBlock in PBST • BM Chemiluminescence ELISA Substrate (POD) • solution B 1:100 solution A • SF9 cell culture medium • Ang2-Fc in SF9 cell culture medium Cell Experiment: • Dispense 5×10^4 cells/well/98 μL in 96 well tissue culture plate • Incubate at 37° C./5% CO2 • After 24 h add compounds according to desired concentrations • Add also to control and stimulated values without compounds 2 μL DMSO • And mix for a few min at room temperature • Add 100 μL Ang2-Fc to all wells except control, which receives insect medium • Incubate 20 min at 37° C. • Wash 3× with PBS++ • Add 100 μl Lysis buffer/well and shake a couple of min at room temperature • Store lysates at […] before utilizing for the ELISA Performance of Sandwich-ELISA • Coat 96 well FluoroNunc Plate MaxiSorp Surface C with anti-Tie2 mAb • 1:425 in Coating buffer pH 9.6; 100 μL/well overnight at 4° C. • Wash 2× with PBST • Block plates with 250 μL/well RotiBlock 1:10 in VE-water • Incubate for 2 h at room temperature or overnight at 4° C. shaking • Wash 2× in PBST • Add thawed lysates to wells and incubate overnight shaking at 4° C. • Wash 2× with PBST • Add 100 μL/well anti-Phosphotyrosine HRP-Conjugated 1:10000 in 3% • TopBlock (3% TopBlock in PBST) and incubate overnight under shaking • Wash 6× with PBST • Add 100 μL/well BM Chemiluminescence ELISA Substrate (POD) • solutions 1 und 2 (1:100) • Determine luminescence with the LumiCount. Assay 2: Tie-2-Kinase HTRF-Assay Without Kinase Preactivation
(ELISA stands for enzyme-linked immunosorbent assay.)

Molecules are shown by their SMILES.

Tie2, sequence (Q02763 23-1124, species assumed): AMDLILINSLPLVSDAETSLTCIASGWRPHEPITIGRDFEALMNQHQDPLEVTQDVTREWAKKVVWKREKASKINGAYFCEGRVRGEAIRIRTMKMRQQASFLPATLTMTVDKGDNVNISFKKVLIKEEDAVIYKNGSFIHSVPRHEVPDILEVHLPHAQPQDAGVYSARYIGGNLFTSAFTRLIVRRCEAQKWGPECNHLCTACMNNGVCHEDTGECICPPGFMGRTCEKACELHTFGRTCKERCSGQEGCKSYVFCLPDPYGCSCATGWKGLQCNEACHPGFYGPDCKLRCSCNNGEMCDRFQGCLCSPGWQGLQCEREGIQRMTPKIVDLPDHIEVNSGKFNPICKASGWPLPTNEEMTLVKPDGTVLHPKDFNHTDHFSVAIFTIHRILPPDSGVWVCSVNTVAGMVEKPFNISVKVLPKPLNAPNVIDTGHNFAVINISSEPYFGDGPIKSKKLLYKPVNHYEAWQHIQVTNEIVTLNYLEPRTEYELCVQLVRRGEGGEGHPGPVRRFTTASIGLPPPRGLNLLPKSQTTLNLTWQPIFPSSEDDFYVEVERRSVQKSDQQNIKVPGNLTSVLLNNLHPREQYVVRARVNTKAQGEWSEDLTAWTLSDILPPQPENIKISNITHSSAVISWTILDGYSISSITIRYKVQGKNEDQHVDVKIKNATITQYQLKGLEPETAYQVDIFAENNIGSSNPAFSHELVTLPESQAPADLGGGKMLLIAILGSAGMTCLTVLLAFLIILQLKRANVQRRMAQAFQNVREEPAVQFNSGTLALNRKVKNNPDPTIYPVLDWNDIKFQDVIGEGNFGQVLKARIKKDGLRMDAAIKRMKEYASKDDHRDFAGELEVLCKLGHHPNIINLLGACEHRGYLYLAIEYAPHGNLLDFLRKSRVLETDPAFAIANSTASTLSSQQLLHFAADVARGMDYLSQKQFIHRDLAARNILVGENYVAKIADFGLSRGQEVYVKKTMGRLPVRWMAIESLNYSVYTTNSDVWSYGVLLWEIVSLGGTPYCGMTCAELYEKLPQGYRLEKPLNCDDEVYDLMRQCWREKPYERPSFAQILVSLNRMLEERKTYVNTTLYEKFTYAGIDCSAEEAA

For `Cc1ccc(C2(C(=O)Nc3ccc(-c4cnc5nc4NCCCNS(=O)(=O)c4cccc(c4)N5)cc3)CC2)cc1` [Example 1, 1-p-Tolyl-cyclopropane-carboxylic acid [4-(13,13-dioxo-13λ^6-thia-2,4,8,12,19-pentaaza-tricyclo[12.3.1.1^3,7]nonadeca-1(18),3(19),4,6, 14,16-hexaen-6-yl)-phenyl]-amide], at CDK2/CycE, the “Selectivity vs. CDK2” value is above 20 fold. Also, the IC50 at Tie2 is below 100 nM.

Turning to `Cc1ccccc1C1(C(=O)Nc2ccc(-c3cnc4nc3NCCCNS(=O)(=O)c3cccc(c3)N4)cc2)CC1` [Example 2, 1-o-Tolyl-cyclopropane-arboxylic acid [4-(13,13-dioxo-13λ^6-thia-2,4,8,12,19-pentaaza-tricyclo[12.3.1.1^3,7]nonadeca-1(18),3(19),4,6,14,16-hexaen-6-yl)-phenyl]-amide], the “Selectivity vs. CDK2” value on CDK2/CycE is listed as above 20 fold. Further, on Tie2, the IC50 was below 100 nM.

`COc1cccc(C2(C(=O)Nc3ccc(-c4cnc5nc4NCCCNS(=O)(=O)c4cccc(c4)N5)cc3)CC2)c1` [Example 3, 1-(3-Methoxy-phenyl)-cyclopropane-carboxylic acid [4-(13,13-dioxo-13λ^6-thia-2,4,8,12,19-pentaaza-tricyclo[12.3.1.1^3,7]nonadeca-1(18),3(19),4,6,14,16-hexaen-6-yl)-phenyl]-amide]: on CDK2/CycE, the “Selectivity vs. CDK2” value is recorded as above 20 fold. Besides, the IC50 at Tie2 is below 100 nM.

With `COc1ccc(C2(C(=O)Nc3ccc(-c4cnc5nc4NCCCNS(=O)(=O)c4cccc(c4)N5)cc3)CC2)cc1` [Example 4, 1-(4-Methoxy-phenyl)-cyclopropane-carboxylic acid [4-(13,13-dioxo-13λ^6-thia-2,4,8,12,19-pentaaza-tricyclo[12.3.1.1^3,7]-nonadeca-1(18),3(19),4,6,14,16-hexaen-6-yl)-phenyl]-amide], the “Selectivity vs. CDK2” value at CDK2/CycE is recorded as above 20 fold. The IC50 on Tie2 was below 100 nM.

As to `O=C(Nc1ccc(-c2cnc3nc2NCCCNS(=O)(=O)c2cccc(c2)N3)cc1)C1(c2cccc(Cl)c2)CC1` [Example 5, 1-(3-Chloro-phenyl)-cyclopropane-arboxylic acid [4-(13,13-dioxo-13λ^6-thia-2,4,8,12,19-pentaaza-tricyclo[12.3.1.1^3,7]-nadeca-1(18),3(19),4,6,14,16-hexaen-6-yl)-phenyl]-amide], the “Selectivity vs. CDK2” value at CDK2/CycE is reported as above 20 fold. Moreover, the IC50 at Tie2 is below 100 nM.

For the molecule `O=C(Nc1ccc(-c2cnc3nc2NCCCNS(=O)(=O)c2cccc(c2)N3)cc1)C1(c2ccc(Cl)cc2)CC1` [Example 6, 1-(4-Chloro-phenyl)-cyclopropane-carboxylic acid [4-(13,13-dioxo-13λ^6-thia-2,4,8,12,19-pentaaza-tricyclo[12.3.1.1^3,7]-nonadeca-1(18),3(19),4,6,14,16-hexaen-6-yl)-phenyl]-amide], on CDK2/CycE, the “Selectivity vs. CDK2” value is recorded as above 20 fold. Further, the IC50 on Tie2 was below 100 nM.

For the molecule `O=C(Nc1ccc(-c2cnc3nc2NCCCNS(=O)(=O)c2cccc(c2)N3)cc1)C1(c2ccccc2F)CC1` [Example 7, 1-(2-Fluoro-phenyl)-cyclopropane-carboxylic acid [4-(13,13-dioxo-13λ^6-thia-2,4,8,12,19-pentaaza-tricyclo[12.3.1.1^3,7]nonadeca-1(18),3(19),4,6,14,16-hexaen-6-yl)-phenyl]-amide], the “Selectivity vs. CDK2” value on CDK2/CycE is recorded as above 20 fold. Besides, the IC50 at Tie2 was below 100 nM.

For the molecule `O=C(Nc1ccc(-c2cnc3nc2NCCCNS(=O)(=O)c2cccc(c2)N3)cc1)C1(c2cccc(F)c2)CC1` [Example 8, 1-(3-Fluoro-phenyl)-cyclopropane-carboxylic acid [4-(13,13-dioxo-13λ^6-thia-2,4,8,12,19-pentaaza-tricyclo[12.3.1.1^3,7]nonadeca-1(18),3(19),4,6,14,16-hexaen-6-yl)-phenyl]-amide], the “Selectivity vs. CDK2” value at CDK2/CycE is listed as above 20 fold. Also, at Tie2, the IC50 is below 100 nM.

In the case of `O=C(Nc1ccc(-c2cnc3nc2NCCCNS(=O)(=O)c2cccc(c2)N3)cc1)C1(c2ccc(F)cc2)CC1` [Example 9, 1-(4-Fluoro-phenyl)-cyclopropane-carboxylic acid [4-(13,13-dioxo-13λ^6-thia-2,4,8,12,19-pentaaza-tricyclo[12.3.1.1^3.7]nonadeca-1(18),3(19),4,6,14,16-hexaen-6-yl)-phenyl]-amide], at CDK2/CycE, the “Selectivity vs. CDK2” value is on record as above 20 fold. Moreover, the IC50 on Tie2 was below 100 nM.

Turning to `O=C(Nc1ccc(-c2cnc3nc2NCCCNS(=O)(=O)c2cccc(c2)N3)cc1)C1(c2cccc(C(F)(F)F)c2)CC1` [Example 10, 1-(3-Trifluoromethyl-phenyl)-cyclopropane-carboxylic acid [4-(13,13-dioxo-13λ^6-thia-2,4,8,12,19-pentaaza-tricyclo[12.3.1.1^3,7]nonadeca-1(18),3(19),4,6,14,16-hexaen-6-yl)-phenyl]-amide], the “Selectivity vs. CDK2” value on CDK2/CycE was above 20 fold. For the same molecule, at Tie2, the IC50 is below 100 nM.

On to `O=C(Nc1ccc(-c2cnc3nc2NCCCNS(=O)(=O)c2cccc(c2)N3)cc1)C1(c2ccc(C(F)(F)F)cc2)CC1` [Example 11, 1-(4-Trifluoromethyl-phenyl)-cyclopropane-carboxylic acid [4-(13,13-dioxo-13λ^6-thia-2,4,8,12,19-pentaaza-tricyclo[12.3.1.1^3,7]nonadeca-1(18),3(19),4,6,14,16-hexaen-6-yl)-phenyl]-amide], for which, at CDK2/CycE, the “Selectivity vs. CDK2” value is recorded as above 20 fold. On Tie2, the IC50 was below 100 nM.

As for `O=C(Nc1ccc(-c2cnc3nc2NCCCNS(=O)(=O)c2cccc(c2)N3)cc1)C1(c2cc(C(F)(F)F)ccc2F)CC1` [Example 12, 1-(2-Fluoro-5-trifluoromethyl-phenyl)-cyclopropane-carboxylic acid [4-(13,13-dioxo-13λ^6-thia-2,4,8,12,19-pentaaza-tricyclo[12.3.1.1^3,7]-nonadeca-1(18),3(19),4,6,14,16-hexaen-6-yl)-phenyl]-amide], the “Selectivity vs. CDK2” value on CDK2/CycE is listed as above 20 fold. For the same molecule, the IC50 on Tie2 is below 100 nM.

As for `CC(C)(C(=O)Nc1ccc(-c2cnc3nc2NCCCNS(=O)(=O)c2cccc(c2)N3)cc1)c1ccc(Cl)cc1` [Example 13, 2-(4-Chloro-phenyl)-N-[4-(13,13-dioxo-13λ^6-thia-2,4,8,12,19-pentaaza-tricyclo[12.3.1.1^3,7]-nonadeca-1(18),3(19),4,6,14,16-hexaen-6-yl)-phenyl]-isobutyramide], on CDK2/CycE, the “Selectivity vs. CDK2” value was above 20 fold. Also, the IC50 at Tie2 is 100 to 1000 nM.
